Experimental data: US20070179060A1, “6-(Poly-substituted aryl)-4-aminopicolinates and their use as herbicides” (priority 2006, published 2007)

Experiments:
[1] = tested on: redroot pigweed (Amaranthus retroflexus); assay: Postemergence herbicidal activity; format: in vivo; settings: post-emergent, 140 g ai/ha, after 14 days; for pest or weed control at 140 g/ha: Amaranthus retroflexus, post-emergence, 336 h, read-out: % Control AMARE
Outline: (§1)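 Plants grown 7-21 days in greenhouse (about 15 h photoperiod, 23-29° C day, 22-28° C night) to first or second true leaf stage. Compounds in acetone/water/isopropanol/DMSO carrier with crop oil concentrate and Triton X-155 sprayed overhead at 187 L/ha; controls received solvent blank. Plants sub-irrigated afterwards; dose responses analysed by probit analysis.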

[2] = tested on: velvetleaf (Abutilon theophrasti); assay: Postemergence herbicidal activity; format: in vivo; settings: post-emergent, 140 g ai/ha, after 14 days; for pest or weed control at 140 g/ha: Abutilon theophrasti, post-emergence, 336 h, read-out: % Control ABUTH
Outline: as §1

[3] = tested on: lambsquarter (Chenopodium album); assay: Postemergence herbicidal activity; format: in vivo; settings: post-emergent, 140 g ai/ha, after 14 days; for pest or weed control at 140 g/ha: Chenopodium album, post-emergence, 336 h, read-out: % Control CHEAL
Outline: as §1

[4] = tested on: redroot pigweed (Amaranthus retroflexus); assay: Preemergence herbicidal activity; format: in vivo; settings: pre-emergent, after 20-22 days; for pest or weed control at 140 g/ha / % Control AMARE: 140 g ai/ha
Excerpt: (§2) Seeds of the desired test plant species were planted in a soil matrix prepared by mixing a loam soil (43 percent silt, 19 percent clay, and 38 percent sand, with a pH of about 8.1 and an organic matter content of about 1.5 percent) and sand in a 70 to 30 ratio. The soil matrix was contained in plastic pots with a surface area of 113 square centimeters. When required to ensure good germination and healthy plants, a fungicide treatment and/or other chemical or physical treatment was applied. […] Compound requirements are based upon a 12 mL application volume at a rate of 187 L/ha. Formulated compounds were applied to the plant material with an overhead Mandel track sprayer equipped with a […] nozzles calibrated to deliver 187 L/ha over an application area of 0.503 square meters at a spray height of 18 inches (43 cm) above the soil surface. Control plants were sprayed in the same manner with the solvent blank. The treated pots and control pots were placed in a greenhouse maintained with an approximate 15 hour photoperiod and temperatures of about 23-29° C. during the day and 22-28° C. during the night. Nutrients and water were added on a regular basis and supplemental lighting was provided with overhead metal halide 1000-watt lamps as necessary. The water was added by top-irrigation.

[5] = tested on: velvetleaf (Abutilon theophrasti); assay: Preemergence herbicidal activity; format: in vivo; settings: pre-emergent, after 20-22 days; for pest or weed control at 140 g/ha / % Control ABUTH: 140 g ai/ha
Excerpt: as §2

[6] = tested on: lambsquarter (Chenopodium album); assay: Preemergence herbicidal activity; format: in vivo; settings: pre-emergent, after 20-22 days; for pest or weed control at 140 g/ha / % Control CHEAL: 140 g ai/ha
Excerpt: as §2

[7] = Amaranthus retroflexus, pre-emergence, 480 h, read-out: % Control AMARE
[8] = Abutilon theophrasti, pre-emergence, 480 h, read-out: % Control ABUTH
[9] = Chenopodium album, pre-emergence, 480 h, read-out: % Control CHEAL

Compound	melting point	pest or weed control at 140 g/ha [1] [%]	pest or weed control at 140 g/ha [2] [%]	pest or weed control at 140 g/ha [3] [%]	pest or weed control at 140 g/ha [4, 7] [%]	pest or weed control at 140 g/ha [5, 8] [%]	pest or weed control at 140 g/ha [6, 9] [%]	pest or weed control at 280 g/ha ([4]; Amaranthus retroflexus, pre-emergence, 480 h, 280 g ai/ha, read-out: % Control AMARE) [%]	pest or weed control at 280 g/ha ([5]; Abutilon theophrasti, pre-emergence, 480 h, 280 g ai/ha, read-out: % Control ABUTH) [%]	pest or weed control at 280 g/ha ([6]; Chenopodium album, pre-emergence, 480 h, 280 g ai/ha, read-out: % Control CHEAL) [%]	% Control AMARE [1] [%]	% Control ABUTH [2] [%]	% Control CHEAL [3] [%]	% Control AMARE [4] [%]	% Control ABUTH [5] [%]	% Control CHEAL [6] [%]
COCc1c(Cl)ccc(-c2cc(N)c(Cl)c(C(=O)OC)n2)c1F [Compound 3, 4-Amino-3-chloro-6-(4-chloro-2-fluoro-3-methoxymethylphenyl)pyridine-2-carboxylic acid methyl ester]	116 to 117 °C	100	100	80	100	98	95									
COC(=O)c1nc(-c2ccc(Cl)c(OCC(F)F)c2Cl)cc(N)c1Cl [Compound 10, 4-Amino-3-chloro-6-[2,4-dichloro-3-(2,2-difluoroethoxy)phenyl]pyridine-2-carboxylic acid methyl ester]	113 to 115 °C	100	90	100				50	40	80						
COC(=O)c1nc(-c2ccc3c(c2F)OCO3)c(F)c(N)c1Cl [Compound 12, 4-Amino-3-chloro-5-fluoro-6-(2-fluoro-3,4-methylenedioxyphenyl)pyridine-2-carboxylic acid methyl ester]	151 to 152 °C	100	100	100	100	100	100									
COC(=O)c1nc(-c2cc(OC)c(Cl)cc2F)c(F)c(N)c1Cl [Compound 15, 4-Amino-3-chloro-5-fluoro-6-(4-chloro-2-fluoro-5-methoxyphenyl)pyridine-2-carboxylic acid methyl ester]	168 to 169 °C	100	100	100	100	60	100									
COC(=O)c1nc(-c2ccc(Cl)c(C)c2F)cc(N)c1Cl [Compound 49, 4-Amino-3-chloro-6-(4-chloro-2-fluoro-3-methylphenyl)pyridine-2-carboxylic acid methyl ester]	116 to 118 °C	80	100	90	100	100	99									
CCOc1c(Cl)cc(F)c(-c2cc(N)c(Cl)c(C(=O)OC)n2)c1F [Compound 59, 4-Amino-3-chloro-6-(4-chloro-2,6-difluoro-3-ethoxyphenyl)pyridine-2-carboxylic acid, methyl ester]		90	100	90	100	90	60									
COC(=O)c1nc(-c2ccc(Cl)c(C(F)F)c2Cl)cc(N)c1Cl [Compound 62, 4-Amino-3-chloro-6-(2,4-dichloro-3-difluoromethylphenyl)pyridine-2-carboxylic acid, methyl ester]		100	100	100	100	100	100									
COC(=O)c1nc(-c2ccc(Cl)c(C(C)F)c2Cl)cc(N)c1Cl (centres unmarked) [Compound 63]											100	100	100	100	100	100
CCc1c(Cl)ccc(-c2cc(N)c(Cl)c(C(=O)OC)n2)c1F [Compound 64, 4-Amino-3-chloro-6-(4-chloro-3-ethyl-2-fluorophenyl)pyridine-2-carboxylic acid, methyl ester]	120 to 122 °C	100	95	100	100	80	100									
COC(=O)c1nc(-c2ccc(Cl)c(C(=O)C(F)(F)F)c2F)cc(N)c1Cl [Compound 82, 4-Amino-3-chloro-6-[4-chloro-2-fluoro-3-(2,2,2-trifluoroacetyl)phenyl]pyridine-2-carboxylic acid, methyl ester]		100	100	95	100	90	100									
COC(=O)c1nc(-c2c(F)cc(C#N)c(OC)c2F)cc(N)c1Cl [Compound 95, 4-amino-3-chloro-6-(4-cyano-2,6-difluoro-3-methoxyphenyl)pyridine-2-carboxylic acid, methyl ester]		85	100	90	90	90	90									
Nc1cc(-c2ccc(Cl)c(OCC(F)F)c2F)nc(C(=O)O)c1Cl [Compound 96, 4-Amino-3-chloro-6-(4-chloro-2-fluoro-3-(2,2-difluoroethoxy)phenyl)pyridine-2-carboxylic acid]		100	50	90	70	20	40									
CN(C)c1cc(-c2cc(N)c(Cl)c(C(=O)O)n2)c(F)cc1Cl [Compound 111, 4-Amino-3-chloro-6-(4-chloro-5-dimethyamino-2-fluorophenyl)pyridine-2-carboxylic acid]														100	35	100
CN(C)c1c(Cl)ccc(-c2cc(N)c(Cl)c(C(=O)O)n2)c1F [Compound 112, 4-Amino-3-chloro-6-(4-chloro-3-dimethyamino-2-fluorophenyl)pyridine-2-carboxylic acid]											100	100	100	100	100	100
COCCOc1c(Cl)ccc(-c2cc(N)c(Cl)c(C(=O)O)n2)c1F [Compound 113, 4-Amino-3-chloro-6-(4-chloro-2-fluoro-3-methoxyethoxyphenyl)pyridine-2-carboxylic acid]	169 to 170 °C (dec.)				0	0	55									
COc1cc(-c2nc(C(=O)O)c(Cl)c(N)c2F)c(F)cc1Cl [Compound 122, 4-Amino-3-chloro-6-(4-chloro-2-fluoro-5-methoxyphenyl)-5-fluoropyridine-2-carboxylic acid]	180 to 181 °C				100	100	100									
COc1c(Cl)ccc(-c2nc(C(=O)O)c(Cl)c(N)c2F)c1F [Compound 123, 4-Amino-3-chloro-6-(4-chloro-2-fluoro-3-methoxyphenyl)-5-fluoropyridine-2-carboxylic acid]		100	100	100	100	100	100									
Nc1cc(-c2ccc(F)c(F)c2F)nc(C(=O)O)c1Cl [Compound 131, 4-Amino-3-chloro-6-(2,3,4-trifluorophenyl)pyridine-2-carboxlic acid]											100	100	100	100	90	100
